Entries after “also recorded” stand apart in the source; their conditions may differ. Counter-ions that a name gives are not always drawn. Like-named read-outs stand apart in the source and are kept apart here.
Experiments:
[1] = system: human erythrocytes; experiment: Hemolytic activity against human erythrocytes; format: cell-based; details: human erythrocytes; for HC50: Erythrocyte, 1 h at 37 °C, dose causing lysis of 50% erythrocytes, read-out: ED50, Erythrocytes (hemolytic activity); for hemolytic activity (in words): concentration range up to 50 µM
Protocol: Human blood (B(III) Rh+) was used to obtain erythrocytes by centrifuging 450× g three times for 5 min with phosphate-buffered saline (PBS) (pH 7.4) at 4 °C on centrifuge LABOFUGE 400R (Heraeus, Hanau, Germany). Ice-cold PBS (pH 7.4) was used for resuspension of erythrocytes residue to a final optical density of 1.5 at 700 nm, which was kept on ice. Then, 20 µL of tested compound solution or control—djakonovioside A1 [5]—were added to 180 µL of erythrocyte suspension in V-bottom 96-well plates and exposed for 1 h at 37 °C. Next, centrifugation at 900× g for 10 min on laboratory centrifuge LMC-3000 (Biosan, Riga, Latvia), led to layers’ separation, and 100 µL of supernatant was carefully decanted and transferred into new flat-plate each. The values of erythrocyte lysis were measured on microplate photometer Multiskan FC (Thermo Fisher Scientific, Waltham, MA, USA) at λ = 570 nm as hemoglobin concentration in supernatant. The effective dose, causing lysis of 50% erythrocytes (ED50), was calculated with SigmaPlot 14.0 software. All the experiments were carried out in triple repetitions, p ≤ 0.05.

[2] = in vitro; format: cell-based; details: human; for IC50: MTT, 24 h incubation, read-out: Cytotoxicity, IC50, MCF-10A
[3] = system: MCF-7 human breast cancer cell line; experiment: cells; format: cell-based; details: for IC50: read-out: Cytotoxicity, IC50, MCF-7; for Selectivity Index (SI), MCF-7: ratio of IC50 for healthy (MCF-10A) and cancer cells
[4] = system: T-47D human breast cancer cell line; experiment: cells; format: cell-based; details: for IC50: Homo sapiens, T47D, read-out: Cytotoxicity, IC50, T-47D
[5] = system: triple-negative MDA-MB-231 human breast cancer cell line; experiment: cells; format: cell-based; details: for IC50: Homo sapiens, read-out: Cytotoxicity, IC50, MDA-MB-231; for Selectivity Index (SI), MDA-MB-231: ratio of IC50 for healthy (MCF-10A) and cancer cells
[6] = system: MDA-MB-231 cells; experiment: Wound scratch migration assay, MDA-MB-231; format: cell-based, human; details: MDA-MB-231, concentration 1 μM, 24 h of incubation
Protocol: (§1) Attached to special migration plate plastic bottom MCF-7 or MDA-MB-231 cells were separated by a silicone insert (Culture-insert 2 Well 24, ibiTreat). After removing an insert, gap between the cells was 500 ± 50 μm. Cell debris and floating cells were deleted by washing twice with PBS; 10 μM of 5 mM initial solution of CFDA SE ((5,6)-carboxyfluorescein succinimidyl ester) (LumiTrace CFDA SE kit, Lumiprobe, Moscow, Russia) in DMSO was dissolved in PBS and added to cells for 5 min at 37 °C; after washing twice with PBS, the fresh culture medium was added. Then, cells were treated with various concentrations of glycosides or culture medium only (vehicle control) and left for 24 and 72 h. Cell migration into the wound area was observed under a fluorescence microscope (MIB-2-FL, LOMO, Russia) with objective 10× magnification.

[7] = system: human breast cancer cell lines MCF-7, T-47D and MDA-MB-231; experiment: Cytotoxic activity (MTT assay), statements on the human breast cancer cell lines together; format: cell-based
Text: Human erythrocytes were purchased from the Station of Blood Transfusion, Vladivostok. Human mammary epithelial cell line MCF-10A CRL-10317, human breast cancer cell lines T-47D HTB-133, MCF-7 HTB-22, and MDA-MB-231 CRM-HTB-26 were received from ATCC (Manassas, VA, USA). Culturing conditions: medium of RPMI-1640 with 1% penicillin/streptomycin (Biolot, St. Petersburg, Russia) and 10% fetal bovine serum (FBS) (Biolot, St. Petersburg, Russia) for T-47D cell line; Minimum Essential Medium (MEM) with 1% penicillin/streptomycin sulfate (Biolot, St. Petersburg, Russia) and FBS (Biolot, St. Petersburg, Russia) to a final concentration of 10% for MCF-7 and MDA-MB-231 cells; DMEM/F12 medium with 10% FBS, 20 ng/mL EGF, […], 100 ng/mL cholera toxin, 10 μg/mL insulin, and 1% penicillin/streptomycin (Bioinnlabs, Russia) for MCF-10A cell line.
Methodology: to each well of 96-well plates, the cell suspension (180 µL) with solution (20 µL) of tested glycoside in the certain concentration was placed (MCF-10A, MCF-7, T-47D, and MDA-MB-231—7 × 10^3 cells per well) and incubated in the atmosphere with 5% CO2 at 37 °C for 24 h. The times of incubation of cucumarioside A2-5 (6) and djakonoviosides C1 (1) and E1 (3), at concentrations of 0.5–12.0 μM with T-47D, MCF-7, or MDA-MB-231 cells, were 24, 48, and 72 hrs. Then, the solutions of tested compounds with medium were replaced by 100 µL of fresh medium, and 10 µL of 3-(4,5-dimethylthiazol-2-yl)-2,5-diphenyltetrazolium bromide (MTT) (PanReac, AppliChem, Darmstadt, Germany) stock solution (5 mg/mL) was added to each well and incubated for 4 h, followed by the addition of 100 µL of SDS-HCl solution (1 g SDS/10 mL d-H2O/17 µL 6 N HCl) and further incubated for 18 h. Multiskan FC microplate photometer (Thermo Fisher Scientific, Waltham, MA, USA) was used to measure the absorbance of the converted dye formazan at 570 nm. The concentration caused 50% cell metabolic activity inhibition (IC50), which expresses the cytotoxic activity of each glycoside. The experiments were conducted in triplicate, p ≤ 0.05.

[8] = system: MDA-MB-231 cells; experiment: Colony formation (clonogenic) assay, MDA-MB-231; format: cell-based, human; details: 10 days; for inhibitory effect on the formation of colonies: MDA-MB-231, concentration 2 μM
Protocol: (§2) The influence of glycosides on colony formation by MCF-7 or MDA-MB-231 cells was tested by the clonogenic assay. Cell density: 1 × 10^3 for MDA-MB-231 and 0.3 × 10^3 for MCF-7 cells per well; cell culture: MEM media, 10% FBS, 10,000 U/mL of penicillin, and 10,000 μg/mL of streptomycin supplemented or not (control) with different concentration of glycosides; incubation conditions: 10 days, 37 °C, atmosphere with 5% CO2; obtained: visible to eye colonies (at least 50 cells per colony); fixation with methanol (25 min); staining with 0.5% solution of crystal violet (25 min); washing and air-drying of plates.

[9] = system: MCF-7 cells; experiment: Colony formation (clonogenic) assay, MCF-7; format: cell-based, human; details: MCF-7, concentration 2 μM, 10 days
Protocol: as §2

[10] = system: MCF-7 cells; experiment: Wound scratch migration assay, MCF-7; format: cell-based, human; details: MCF-7, concentrations below EC50, 72 h
Protocol: as §1

[11] = Homo sapiens, MCF7, MTT, 24 h incubation
[12] = MDA-MB-231, MTT, 24 h incubation

Structure (SMILES) | HC50 [1] [µM] | IC50 [2] [µM] | IC50 [3, 11] [µM] | Selectivity Index (SI), MCF-7 [3] | IC50 ([4]; MTT, 24 h incubation) [µM] | IC50 [5, 12] [µM] | Selectivity Index (SI), MDA-MB-231 [5] | IC50 at 24 h [2] [µM] | IC50 ([3]; Homo sapiens, MCF7, 24 h) [µM] | IC50 ([4]; 24 h) [µM] | IC50 ([5]; MDA-MB-231, 24 h) [µM] | inhibitory effect on the formation of colonies [8] | hemolytic activity (in words) [1] | other results
COC1C(O)C(CO)OC(OC2C(O)C(CO)OC(OC3C(C)OC(OC4C(OC5CCC6(C)C7CCC89C(=O)OC(C)(CC(=O)CC(C)C)C8C(OC(C)=O)CC9(C)C7=CCC6C5(C)C)OCC(OS(=O)(=O)O)C4O)C(OC4OCC(O)C(O)C4O)C3O)C2O)C1O (stereo not drawn) [cucumarioside A2-5] | 1.63 ± 0.13 | 14 ± 1.03 | 25.7 ± 1.49 | 0.55 | 5.81 ± 0.86 | 2.58 ± 0.1 | 5.43 | – | – | – | – | – | – | Selectivity Index (SI), T-47D ([4]; ratio of IC50 for healthy (MCF-10A) and cancer cells): 2.41; inhibition of cell migration (scratch assay) ([6]; 1 µM): about 85 % as compared to the control; inhibition of cell migration (scratch assay) ([6]; listed as Cucumarioside A2-5, 1 µM): 85 % as compared to the control; cytotoxicity on prolonged incubation (in words) ([7]; incubation for 48 and 72 h, 1 on MDA-MB-231, 6 on T-47D and MDA-MB-231): did not lose cytotoxicity over time
C=C(C)CCCC1(C)OC(=O)C23CCC4C(=CCC5C(C)(C)C(OC6OCC(OS(=O)(=O)O)C(O)C6OC6OCC(OC7OC(CO)C(O)C(OC8OC(CO)C(O)C(OC)C8O)C7O)C(O)C6OC6OCC(O)C(O)C6O)CCC45C)C2(C)CC(OC(C)=O)C13 [djakonovioside C1, 3β-O-{3-O-methyl-β-D-glucopyranosyl-(1→3)-β-D-glucopyranosyl-(1→4)-[(1→2)-β-D-xylopyranosyl]-β-D-xylopyranosyl-(1→2)-4-O-sodium sulfate-β-D-xylopyranosyl}-16β-acetoxyholosta-7,25-dien] | 8.55 ± 0.04 | – | – | 0.56 | – | – | 2.84 | 21.8 ± 0.72 | 38.6 ± 2.36 | 16.8 ± 0.76 | 7.67 ± 0.32 | approximately 25 % of the control | – | hemolytic activity (in words) ([1]; listed as Djakonovioside C1): slightly lower activity; inhibitory effect on the formation and growth of colonies ([8]; MDA-MB-231, concentration 1 μM): approximately 25 % of the control; cytotoxicity on prolonged incubation (in words) [7]: did not lose cytotoxicity over time
C=C(C)CCCC1(C)OC(=O)C23CCC4C(=CCC5C(C)(C)C(OC6OCC(OS(=O)(=O)O)C(O)C6OC6OC(CO)C(OC7OC(COS(=O)(=O)O)C(O)C(OC8OC(COS(=O)(=O)O)C(O)C(OC)C8O)C7O)C(O)C6O)CCC45C)C2(C)CC(OC(C)=O)C13 [djakonovioside E1, 3β-O-[6-O-sodium sulfate-3-O-methyl-β-D-glucopyranosyl-(1→3)-6-O-sodium sulfate-β-D-glucopyranosyl-(1→4)-β-D-glucopyranosyl-(1→2)-4-O-sodium sulfate-β-D-xylopyranosyl]-16β-acetoxyholosta-7,25-dien] | 21.7 ± 0.94 | – | – | >32.89 | – | – | >22.83 | > 50 | 1.52 ± 0.14 | > 50 | 2.19 ± 0.17 | 35.68 ± 2.00 % of the control | weakly hemolytic; also recorded: low hemolytic activity | EC50 ([3]; Homo sapiens, MCF7, MTT, 48 h incubation, read-out: EC50, MCF-7 cells, 48 h incubation (antiproliferative effect)): 0.78 ± 0.32 µM; inhibitory effect on the formation of colonies [9]: 30.73 ± 0.49 % of the control; migration of MCF-7 cells (in words) [10]: reliable blockage of the migration
COC1C(O)C(COS(=O)(=O)O)OC(OC2C(O)C(COS(=O)(=O)O)OC(OC3C(C)OC(OC4C(OC5CCC6(C)C7=CCC8(C)C(C(C)=O)CCC8(C)C7CCC6C5(C)C)OCC(OS(=O)(=O)O)C4O)C(OC4OCC(O)C(O)C4O)C3O)C2O)C1O (stereo not drawn) (hydrate or solvate) [isokoreoside A] | – | – | – | – | – | – | – | – | – | – | – | – | – | melting point: 215 °C
COC1C(O)C(CO)OC(OC2C(O)C(COS(=O)(=O)O)OC(OC3C(C)OC(OC4C(OC5CCC6(C)C7CCC8(C)C(C(C)=O)CCC8(C)C7=CCC6C5(C)C)OCC(OS(=O)(=O)O)C4O)C(OC4OCC(O)C(O)C4O)C3O)C2O)C1O (stereo not drawn) [cucumarioside A3-2] | 17.9 ± 0.48 | > 50 | > 50 | – | > 50 | > 50 | – | – | – | – | – | – | moderate hemolytic activity; also recorded: low hemolytic activity | cytotoxic activity against human tumor cell lines (in words) ([7]; MCF-7, T-47D, MDA-MB-231, concentration range up to 50 µM): not active

Reference: PMC10744391, “Sulfated Triterpene Glycosides from the Far Eastern Sea Cucumber Cucumaria djakonovi: Djakonoviosides C1, D1, E1, and F1; Cytotoxicity against Human Breast Cancer Cell Lines; Quantitative Structure–Activity Relationships” (Marine Drugs, 2023)
